Laboratory results as given in PubChem BioAssay (NCI).
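The compound was tested at five concentrations on cells cultured in 96-well plates, with a 48-hour exposure period. At the GI50, growth is halved. TGI: concentration producing complete growth inhibition.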

What was measured:
Assay in all cases: growth of human tumour cells (NCI), 48 h
[1] = tested on: ACHN renal
[2] = tested on: CCRF-CEM leukemia
[3] = tested on: DU-145 prostate
[4] = tested on: HCT-15 colon
[5] = tested on: HS 578T breast
[6] = tested on: KM12 colon
[7] = tested on: MALME-3M melanoma
[8] = tested on: MDA-MB-231 breast
[9] = tested on: OVCAR-3 ovarian
[10] = tested on: PC-3 prostate
[11] = tested on: RPMI-8226 leukemia
[12] = tested on: SF-295 CNS
[13] = tested on: SK-OV-3 ovarian
[14] = tested on: SN12C renal
[15] = tested on: SNB-19 CNS
[16] = tested on: UACC-62 melanoma
[17] = tested on: 786-0 renal
[18] = tested on: A498 renal
[19] = tested on: A549 NSCLC
[20] = tested on: HOP-92 NSCLC
[21] = tested on: MDA-MB-435
[22] = tested on: NCI/ADR-RES ovarian
[23] = tested on: OVCAR-4 ovarian
[24] = tested on: OVCAR-5 ovarian
[25] = tested on: SF-268 CNS
[26] = tested on: SF-539 CNS
[27] = tested on: SK-MEL-2 melanoma
[28] = tested on: SK-MEL-28 melanoma
[29] = tested on: SK-MEL-5 melanoma
[30] = tested on: SW-620 colon
[31] = tested on: UACC-257 melanoma
[32] = tested on: UO-31 renal
[33] = tested on: HL-60(TB) leukemia
[34] = tested on: K-562 leukemia
[35] = tested on: MOLT-4 leukemia
[36] = tested on: SNB-75 CNS
[37] = tested on: SR leukemia

SMILES: COc1cc(/C=C2\CN(S(=O)(=O)c3ccccc3)C/C(=C\c3cc(CN4CCCCC4)c(O)c(OC)c3)C2=O)cc(CN2CCCCC2)c1O
- GI50 [1]: 1540 nM
- TGI [1]: 2930 nM
- GI50 [2]: 2620 nM
- TGI [2]: 7250 nM
- GI50 [3]: 1730 nM
- TGI [3]: 3190 nM
- GI50 [4]: 1790 nM
- TGI [4]: 3780 nM
- GI50 [5]: 1630 nM
- TGI [5]: 4310 nM
- GI50 [6]: 1730 nM
- TGI [6]: 3410 nM
- GI50 [7]: 1740 nM
- TGI [7]: 3390 nM
- GI50 [8]: 1770 nM
- TGI [8]: 3470 nM
- GI50 [9]: 1720 nM
- TGI [9]: 3250 nM
- GI50 [10]: 1730 nM
- TGI [10]: 3400 nM
- GI50 [11]: 2290 nM
- TGI [11]: 5110 nM
- GI50 [12]: 2250 nM
- TGI [12]: 5010 nM
- GI50 [13]: 1930 nM
- TGI [13]: 3850 nM
- GI50 [14]: 1830 nM
- TGI [14]: 3630 nM
- GI50 [15]: 2000 nM
- TGI [15]: 4580 nM
- GI50 [16]: 1650 nM
- TGI [16]: 3440 nM

SMILES: c1ccc2cc(Cn3c[n+](Cc4ccc5ccccc5c4)c4ccccc43)ccc2c1
- GI50 [17]: 1520 nM
- TGI [17]: 3090 nM
- GI50 [18]: 1080 nM
- TGI [18]: 2500 nM
- GI50 [19]: 1870 nM
- TGI [19]: 3880 nM
- GI50 [1]: 1940 nM
- TGI [1]: 4000 nM
- GI50 [3]: 1510 nM
- TGI [3]: 2880 nM
- GI50 [20]: 192 nM
- TGI [20]: 1570 nM
- GI50 [6]: 1540 nM
- TGI [6]: 3150 nM
- GI50 [8]: 1100 nM
- TGI [8]: 2470 nM
- GI50 [21]: 1370 nM
- TGI [21]: 2740 nM
- GI50 [22]: 16600 nM
- TGI [22]: 61800 nM
- GI50 [9]: 927 nM
- TGI [9]: 2220 nM
- GI50 [23]: 1190 nM
- TGI [23]: 2610 nM
- GI50 [24]: 1460 nM
- TGI [24]: 2890 nM
- GI50 [10]: 1100 nM
- TGI [10]: 2430 nM
- GI50 [25]: 1310 nM
- TGI [25]: 2720 nM
- GI50 [26]: 1590 nM
- TGI [26]: 3000 nM
- GI50 [27]: 1640 nM
- TGI [27]: 3140 nM
- GI50 [28]: 1520 nM
- TGI [28]: 3110 nM
- GI50 [29]: 556 nM
- TGI [29]: 1860 nM
- GI50 [13]: 1670 nM
- TGI [13]: 3400 nM
- GI50 [30]: 1270 nM
- TGI [30]: 2750 nM
- GI50 [31]: 1390 nM
- TGI [31]: 2970 nM
- GI50 [32]: 1740 nM
- TGI [32]: 4620 nM

SMILES: Cc1ccc(NC(=O)c2[nH]c(SCCN(C)C)nc2-c2ccc(F)cc2)cc1C#Cc1cnc2cccnn12
- GI50 [18]: 1760 nM
- TGI [18]: 3320 nM
- GI50 [2]: 2080 nM
- TGI [2]: 6920 nM
- GI50 [3]: 1830 nM
- TGI [3]: 3340 nM
- GI50 [33]: 1380 nM
- TGI [33]: 3140 nM
- GI50 [20]: 1080 nM
- TGI [20]: 2730 nM
- GI50 [34]: 127 nM
- TGI [34]: 1550 nM
- GI50 [35]: 1930 nM
- TGI [35]: 4830 nM
- GI50 [10]: 2120 nM
- TGI [10]: 4890 nM
- GI50 [11]: 1910 nM
- TGI [11]: 6050 nM
- GI50 [27]: 1350 nM
- TGI [27]: 3160 nM
- GI50 [13]: 1920 nM
- TGI [13]: 3440 nM
- GI50 [36]: 1590 nM
- TGI [36]: 2990 nM
- GI50 [37]: 460 nM
- TGI [37]: 2220 nM
- GI50 [31]: 1880 nM
- TGI [31]: 3510 nM
- GI50 [32]: 1380 nM
- TGI [32]: 2790 nM
